“Also recorded” adds a separate entry of the source.
Assays:
Assay type in all cases: cell-based, mouse
[1] = test system: Bcl-2 expressing beclin1^+/+ and beclin1^+/− iBMK cells; assay: Survival during metabolic stress and recovery without and with ROS scavenger (time-lapse images, adherent cells); settings: NAC 1 mM, 5 days of metabolic stress
From the text: (§1) FIG. 5 illustrates effects of metabolic stress in promoting elevated ROS production and chromosomal instability in autophagy-deficient cells. (A) Autophagy-deficiency leads to elevated ROS production. Overlays show ROS levels in Bcl-2 expressing beclin1^+/+ (Green) and beclin1^+/− iBMK cells (Blue) (x-axis, log scale) under normal growth (0 Di) and at 0.5, 1, 2.5 and 24 hr (beclin1^+/+, green arrows and beclin1^+/−, red arrows) during recovery (0.5-24 hR) from 5 days of metabolic stress (5 Di) by flow-cytometry using the ROS sensor DCF-DA. The ROS levels in untreated cells are shown in dotted lines for comparison. (B) Representative histogram from three independent experiments measuring the mean ROS levels in Bcl-2 expressing beclin1^+/+ and beclin1^+/− iBMK cells shown in (A). […] Representative time-lapse images of Bcl-2 expressing beclin1^+/+ and beclin1^+/− iBMK cells during recovery following 5 days of metabolic stress in presence (NAC) and absence (UT) of the ROS scavenger NAC (1 mM) (relative percentage of adherent cells compared to time 0 is shown). […] Western blot analysis of p62 levels in Bcl-2 expressing beclin1^+/+, beclin1^+/−, atg5^+/+ and atg5^−/− iBMK cell lines following 0 or 7 days of metabolic stress followed by 1 day recovery without and with NAC. […] Numbers represent passage numbers at which ploidy was determined. […]

p62 = assay: Western blot analysis of p62 levels after metabolic stress without and with NAC
From the text: as §1

[2] = test system: diploid beclin1^+/+ and beclin1^+/− iBMK cells; assay: Flow-cytometry analysis of DNA content (progression to aneuploidy) over passages without and with NAC; settings: NAC 1 mM
From the text: FIG. 5 illustrates effects of metabolic stress in promoting elevated ROS production and chromosomal instability in autophagy-deficient cells. (A) Autophagy-deficiency leads to elevated ROS production. Overlays show ROS levels in Bcl-2 expressing beclin1^+/+ (Green) and beclin1^+/− iBMK cells (Blue) (x-axis, log scale) under normal growth (0 Di) and at 0.5, 1, 2.5 and 24 hr (beclin1^+/+, green arrows and beclin1^+/−, red arrows) during recovery (0.5-24 hR) from 5 days of metabolic stress (5 Di) by flow-cytometry using the ROS sensor DCF-DA. The ROS levels in untreated cells are shown in dotted lines for comparison. […] Numbers represent passage numbers at which ploidy was determined.
To determine if the elevated ROS and oxidative stress in autophagy-deficient cells contributes to cellular damage, the stress response without and with the ROS scavenger, N-acetyl cysteine (NAC) was examined. […] To examine the role of increased ROS levels and oxidative stress on genomic instability, the DNA content of early passage diploid beclin1^+/+, and autophagy-deficient beclin1^+/− iBMK cells without and with NAC by flow-cytometry were monitored. beclin1^+/+ iBMK cells maintained diploidy after 40 passages and the presence of NAC had no effect. […]

[3] = test system: Bcl-2 expressing beclin1^+/+ and beclin1^+/− iBMK cells; assay: MTT assays of sensitivity to ER stress and proteasome inhibition; settings: MTT assay; increasing concentrations; tunicamycin 3 days, epoxomycin 2 days; normal growth conditions
From the text: FIG. 3 illustrates the effects of autophagy defects in altering the stress response and sensitize cells to ER stress and proteasome inhibition. (A) Western blots showing levels of p62, ER chaperones, PDI and ubiquitin in Bcl-2 expressing beclin1^+/+, beclin1^+/−, atg5^+/+ and atg5^−/− iBMK cells following 5 or 7 days of metabolic stress, and 1 and 2 days of recovery. (B-D) Allelic loss of beclin1 sensitizes cells selectively to ER stress and proteasome inhibition. MTT assays showing sensitivity of Bcl-2 expressing beclin1^+/+ (Blue) and beclin1^+/− (Red) iBMK cells in response to increasing concentrations of (B) tunicamycin for 3 days, or (C) epoxomycin for 2 days, and (D) following 5 days of metabolic stress. Data are presented as mean±SD. (E) Autophagy deficiency causes mitochondrial damage. […]
Since autophagy defects indicated an elevated demand for protein folding, the sensitivity of beclin1 cells to pharmacological induction of ER stress was investigated. […] Degradation of unfolded proteins via the proteasome pathway and ameliorates ER stress and to investigate if autophagy deficiency also elevated the burden on the ubiquitin-proteasome system, the sensitivity to the proteasome inhibitor epoxomycin was assessed. […]

CC(=O)N[C@@H](CS)C(=O)O [NAC, N-acetyl cysteine]
protective effect in beclin1^+/− cells relative to wild-type [1]: more profound | survival during metabolic stress ([1]; beclin1^+/+ and beclin1^+/− cells): partially rescues the susceptibility to metabolic stress and recovery; also recorded: improved survival | p62 accumulation during metabolic stress (p62; NAC 1 mM, beclin1^+/− iBMK cells): decreased p62 accumulation | p62 accumulation in autophagy-deficient cells (p62; beclin1^+/− and atg5^−/− cells, 7 days of metabolic stress followed by 1 day recovery, with NAC): suppresses p62 accumulation | effect on maintenance of diploidy ([2]; beclin1^+/+ iBMK cells, 40 passages): had no effect | progression to aneuploidy ([2]; beclin1^+/− cells, passages 18 and 39): limits progression to aneuploidy; also recorded: delayed this progression

Tunicamycin
sensitivity of beclin1^+/− cells compared to wild-type cells [3]: increased sensitivity

— patent publication US8187802B2, “Cell lines useful for assessing modulation of autophagy” (Rutgers, The State University of New Jersey, priority 2008, dated 2012)
